Test system: T1, LXRalpha and/or beta
T1 construct: fused on or other part: His-tag (6xHis) on the LXR-LBD
Assay: Co-activator recruitment assay (time-resolved fluorescence, LXR-LBD / SRC-1 peptide)
Format: biochemical, human
Conditions: LXR isoform (alpha or beta) not stated; 22-R Hydroxycholesterol at 50 μM as 100% control; read-out: EC50 in coactivator recruitment assays
Source text: Co-Activator Recruitment Assay The Ligand Binding Domain (LBD) of human LXRalpha (amino acid 205-447) and LXRbeta (amino acid 216-461) was produced by recombinant techniques in E coli. A fragment of the human Steroid Receptor Co-Activator-1 (SRC-1) was produced as a synthetic peptide. An anti-6His-antibody coupled with Europium (Eu^3+) was used to recognize the His-tag on the LXR-LBD and Allophycocyanin (APC) coupled to streptavidin was used to recognize the biotinylated SRC-1. Agonist binding to LXRalpha or LXRbeta enhances the affinity of LXR towards SRC-1 and thereby brings Eu^3+ and APC in close proximity. Eu^3+ is excited at 337 nm and emitts light at 620 nm. This emission, when in close proximity, excites APC to emit light at 665 nm.
Dilution plates with compounds in DMSO were further diluted in buffer {20 mM [Tris(hydroxymethyl)aminomethane] pH 7.5, 0.125% CHAPS {3-[(3-Cholamidopropyl)dimethylammonio]-1-propanesulfonate}, 2 mM DTT (Dithiothreitol) and 0.05% BSA (Bovine Serum Albumin)} in order to reduce DMSO concentration, 0.5 μl to 13.5 μl. To this, 6 μl assay mix was added and the plates (384-well V-groove plates) were incubated at room temperature for 60 to 80 min. […] Time-resolved fluorescence readings were done in a Wallac Victor reader at 665 nm followed by reading at 615 nm. […]

SMILES	EC50
CCCCN1C(=O)C(c2ccccc2)=C(Nc2ccc(OC)cc2)C1=S [Example 7, 1-Butyl-4-[(4-methoxyphenyl)amino]-3-phenyl-5-thioxo-1,5-dihydro-2H-pyrrol-2-one]	90 nM
Nc1ccc(CN2C(=S)C(Nc3ccc(OC(F)F)cc3)=C(c3ccccc3)C2=S)cn1 [Example 18, 1-[(6-Aminopyridin-3-yl)methyl]-3-{[4-(difluoromethoxy)phenyl]amino}-4-phenyl-1H-pyrrole-2,5-dithione]	140 nM

Source: patent US20060189663A1, “Pyrrole-2,5-dithione derivatives as liver x receptor modulators” (AstraZeneca AB, priority 2003, published 2006)
